Measured values published in patent publication US20130040933A1, “AZAINDOLES AS JANUS KINASE INHIBITORS” (priority 2010, published 2013).

Each compound was assayed against T1, rhJAK3 (Homo sapiens, UniProt P52333) (assay: JAK Biochemical HTRF Assay (JAK3)). Conditions: recombinant purified GST-tagged catalytic domain, HTRF format, [ATP] 1.7 μM; read-out: JAK3 IC50.
T1 construct: recombinant purified GST-tagged catalytic domain for each enzyme; purchased Invitrogen PV3855
Method: JAK Biochemical HTRF Assay Protocol
The ability of compounds to inhibit the activity of JAK1, JAK2, JAK3, and TYK2 was measured using a recombinant purified GST-tagged catalytic domain for each enzyme (Invitrogen JAK1 #PV4774, JAK2 #PV4210, JAK3 #PV3855, TYK2 #PV4790) in an HTRF format biochemical assay. The reactions employed a common peptide substrate, LCB-EQEDEPEGDYFEWLW-NH2. The basic assay protocol is as follows: First, […] of diluted compounds in DMSO were dispensed into the wells of a dry 384-well Black plate (Greiner #781076) using a Labcyte Echo 555 acoustic dispenser. Subsequent reagent additions employed a Thermo Multidrop Combi nL. Next, 10 μL of 2× enzyme and 2× substrate in 1× assay buffer (Invitrogen kinase buffer #PV3189, 2 mM DTT, 0.05% BSA) were added to the wells and preincubated for 30 min at room temperature to allow compound binding to equilibrate. After equilibration, 10 μl, of 2×ATP in 1× assay buffer was added to initiate the kinase reaction and the plates were incubated at room temperature for 120 min. At the end of the incubation, 20 μL of 2× stop buffer containing streptavidin-Dylight (Thermo #21845) and Eu-tagged pY20 antibody (Perkin Elmer #AD0067) was added to quench the reaction. Plates were further incubated 60 min at room temperature with shaking and then read on a Perkin Elmer Envision (λex=337 nm, λem=665 and 615 nm, TRF delay time=20 μs). HTRF signal=10,000*665 nm reading/615 nm reading. After normalization to untreated controls, the percent inhibition of the HTRF signal at each compound concentration was calculated. The plot of percent inhibition vs. the log of compound concentration was fit with a 4-parameter dose response equation to calculate IC50 values.

T1 sequence (P52333 822-1111 limits assumed): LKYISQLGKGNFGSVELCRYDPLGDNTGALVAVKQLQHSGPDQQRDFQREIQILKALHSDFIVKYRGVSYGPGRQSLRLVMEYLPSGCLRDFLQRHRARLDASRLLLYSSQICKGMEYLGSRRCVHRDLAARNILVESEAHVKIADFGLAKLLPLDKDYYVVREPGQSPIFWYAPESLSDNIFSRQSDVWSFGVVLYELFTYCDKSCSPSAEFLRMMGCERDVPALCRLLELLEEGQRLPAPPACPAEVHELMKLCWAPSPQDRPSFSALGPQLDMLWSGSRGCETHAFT

C[C@@H](Nc1cncc(-c2c[nH]c3ncc(-c4cccc(N5CCCC5)c4)cc23)n1)C(=O)NCC(F)(F)F [Example 15-1, N^2-{6-[5-(3-pyrrolidin-1-ylphenyl)-1H-pyrrolo[2,3-b]pyridin-3-yl]pyrazin-2-yl}-N-(2,2,2-trifluoroethyl)-D-alaninamide] and C[C@@H](Nc1cncc(-c2c[nH]c3ncc(-c4cccc(N5CCOCC5)c4)cc23)n1)C(=O)NCC(F)(F)F [Example 15-10, N^2-{6-[5-(3-morpholin-4-ylphenyl)-1H-pyrrolo[2,3-b]pyridin-3-yl]pyrazin-2-yl}-N-(2,2,2-trifluoroethyl)-D-alaninamide] cannot be ordered by IC50: at most 1 nM for the first, at most 1 nM for the second.

C[C@@H](Nc1cncc(-c2c[nH]c3ncc(-c4ccc(CC#N)nc4)cc23)n1)C(=O)NCC(F)(F)F [Example 15-2, N^2-(6-{5-[6-(cyanomethyl)pyridin-3-yl]-1H-pyrrolo[2,3-b]pyridin-3-yl}-pyrazin-2-yl)-N-(2,2,2-trifluoroethyl)-D-alaninamide] and C[C@@H](Nc1cncc(-c2c[nH]c3ncc(-c4cnc(N)nc4)cc23)n1)C(=O)NCC(F)(F)F [Example 15-6, N^2-{6-[5-(2-aminopyrimidin-5-yl)-1H-pyrrolo[2,3-b]pyridin-3-yl]pyrazin-2-yl}-N-(2,2,2-trifluoroethyl)-D-alaninamide] cannot be ordered by IC50: at most 1 nM for the first, at most 1 nM for the second.

C[C@@H](Nc1cncc(-c2c[nH]c3ncc(-c4ccc(C(O)C(F)(F)F)cc4)cc23)n1)C(=O)NCC(F)(F)F (stereo partly drawn) [Example 15-3, N-(2,2,2-trifluoroethyl)-N^2-(6-{5-[4-(2,2,2-trifluoro-1-hydroxyethyl)phenyl]-1H-pyrrolo[2,3-b]pyridin-3-yl}pyrazin-2-yl)-D-alaninamide] and CC(c1cccc(-c2cnc3[nH]cc(-c4cncc(N[C@H](C)C(=O)NCC(F)(F)F)n4)c3c2)c1)N1CCCC1 (stereo partly drawn) [Example 15-11, N^2-(6-{5-[3-(1-pyrrolidin-1-ylethyl)-phenyl]-1H-pyrrolo[2,3-b]pyridin-3-yl}pyrazin-2-yl)-N-(2,2,2-trifluoroethyl)-D-alaninamide] cannot be ordered by IC50: at most 1 nM for the first, at most 1 nM for the second.

C[C@@H](Nc1cncc(-c2c[nH]c3ncc(/C=C/CN(C)C)cc23)n1)C(=O)NCC(F)(F)F [Example 15-4, N^2-(6-{5-[(1E)-3-(dimethylamino)prop-1-en-1-yl]-1H-pyrrolo[2,3-b]pyridin-3-yl}pyrazin-2-yl)-N-(2,2,2-trifluoro-ethyl)-D-alaninamide] and COCC#Cc1cnc2[nH]cc(-c3cncc(N[C@H](C)C(=O)NCC(F)(F)F)n3)c2c1 [Example 15-7, N^2-{6-[5-(3-methoxyprop-1-yn-1-yl)-1H-pyrrolo[2,3-b]pyridin-3-yl]pyrazin-2-yl}-N-(2,2,2-trifluoroethyl)-D-alaninamide] cannot be ordered by IC50: 1 to 10 nM for the first, at most 1 nM for the second.

C[C@@H](Nc1cncc(-c2c[nH]c3ncc(-c4ccnn4C)cc23)n1)C(=O)NCC(F)(F)F [Example 15-5, N^2-{6-[5-(1-methyl-1H-pyrazol-5-yl)-1H-pyrrolo[2,3-b]pyridin-3-yl]pyrazin-2-yl}-N-(2,2,2-trifluoroethyl)-D-alaninamide] and C[C@@H](Nc1cncc(-c2c[nH]c3ncc(-c4cnn5c4CCC5)cc23)n1)C(=O)NCC(F)(F)F [Example 15-9, N^2-{6-[5-(5,6-dihydro-4H-pyrrolo[1,2-b]pyrazol-3-yl)-1H-pyrrolo[2,3-b]-pyridin-3-yl]pyrazin-2-yl}-N-(2,2,2-trifluoroethyl)-D-alaninamide] cannot be ordered by IC50: 1 to 10 nM for the first, at most 1 nM for the second.

Compared with C[C@@H](Nc1cncc(-c2c[nH]c3ncc(CN4CCC(F)C4)cc23)n1)C(=O)NCC(F)(F)F (stereo partly drawn) [Example 15-8, N^2-(6-{5-[(3-fluoropyrrolidin-1-yl)-methyl]-1H-pyrrolo[2,3-b]pyridin-3-yl}-pyrazin-2-yl)-N-(2,2,2-trifluoroethyl)-D-alaninamide], C[C@@H](Nc1cncc(-c2c[nH]c3ncc(-c4cccc(CN5CCOCC5)c4)cc23)n1)C(=O)NCC(F)(F)F [Example 15-12, N^2-(6-{5-[3-(morpholin-4-yl-methyl)phenyl]-1H-pyrrolo[2,3-b]-pyridin-3-yl}pyrazin-2-yl)-N-(2,2,2-trifluoroethyl)-D-alaninamide] is lower in IC50: 10 to 100 nM for the first, at most 1 nM for the second. The second is the more potent here.

Same assay, conditions: recombinant purified GST-tagged catalytic domain, HTRF format, [ATP] 1.7 μM; read-out: rhJAK3 IC50

Compared with C[C@H](Oc1cncc(-c2c[nH]c3ncc(Cl)cc23)n1)C(=O)NCC(F)(F)F [Example 6-4, 2(S) 2-{[6-(5-chloro-1H-pyrrolo[2,3-b]pyridin-3-yl)pyrazin-2-yl]oxy}-N-(2,2,2-trifluoroethyl)propanamide], CC(Cc1cncc(-c2c[nH]c3ncc(Cl)cc23)n1)C(=O)NCC(F)(F)F (centres unmarked) [Example 11, 3-[6-(5-chloro-1H-pyrrolo[2,3-b]pyridin-3-yl)pyrazin-2-yl]-2-methyl-N-(2,2,2-trifluoroethyl)-propanamide] is higher in IC50: 1 to 10 nM for the first, 10 to 100 nM for the second. The first is the more potent here.

First: O=C(NCC(F)(F)F)c1cncc(-c2c[nH]c3ncc(Cl)cc23)n1 [Example 7, 6-(5-chloro-1H-pyrrolo[2,3-b]pyridin-3-yl)-N-(2,2,2-trifluoroethyl)pyrazine-2-carboxamide]
Second: O=C(Cc1cncc(-c2c[nH]c3ncc(Cl)cc23)n1)NCC(F)(F)F [Example 8, 2-[6-(5-chloro-1H-pyrrolo[2,3-b]pyridin-3-yl)pyrazin-2-yl]-N-(2,2,2-trifluoroethyl)acetamide]
The IC50 of the first is higher: 100 to 1000 nM for the first, 10 to 100 nM for the second. The second is the more potent here.

Compared with O=C(NCC(F)(F)F)[C@H]1CNCCN1C(=O)c1cncc(-c2c[nH]c3ncc(Cl)cc23)n1 [Example 7-1, (2R)-1-{[6-(5-chloro-1H-pyrrolo[2,3-b]pyridin-3-yl)-pyrazin-2-yl]carbonyl}-N-(2,2,2-trifluoroethyl)piperazine-2-carboxamide], CC1(C(=O)NCC(F)(F)F)CC1c1cncc(-c2c[nH]c3ncc(Cl)cc23)n1 (centres unmarked) [Example 10-2, 2-[6-(5-chloro-1H-pyrrolo[2,3-b]pyridin-3-yl)pyrazin-2-yl]-1-methyl-N-(2,2,2-trifluoroethyl)cyclopropanecarboxamide] is lower in IC50: 100 to 1000 nM for the first, 1 to 10 nM for the second. The second is the more potent here.

First: O=C(Cc1cncc(-c2c[nH]c3ncc(Cl)cc23)n1)N1CCOCC1 [Example 8-1, 5-chloro-3-[6-(2-morpholin-4-yl-2-oxoethyl)pyrazin-2-yl]-1H-pyrrolo-[2,3-b]pyridine]
Second: N#CCNC(=O)Cc1cncc(-c2c[nH]c3ncc(Cl)cc23)n1 [Example 8-4, 2-[6-(5-chloro-1H-pyrrolo[2,3-b]-pyridin-3-yl)pyrazin-2-yl]-N-(cyanomethyl)acetamide]
The IC50 of the first is higher: 100 to 1000 nM for the first, 10 to 100 nM for the second.

First: N#CCCNC(=O)Cc1cncc(-c2c[nH]c3ncc(Cl)cc23)n1 [Example 8-2, 2-[6-(5-chloro-1H-pyrrolo[2,3-b]-pyridin-3-yl)pyrazin-2-yl]-N-(2-cyanoethyl) acetamide]
Second: O=C(Cc1cncc(-c2c[nH]c3ncc(Cl)cc23)n1)NCCC(F)(F)F [Example 8-3, 2-[6-(5-chloro-1H-pyrrolo[2,3-b]-pyridin-3-yl)pyrazin-2-yl]-N-(3,3,3-trifluoropropyl) acetamide]
The IC50 of the first is higher: 100 to 1000 nM for the first, 10 to 100 nM for the second. The second is the more potent here.

C/C(=C\c1cncc(-c2c[nH]c3ncc(Cl)cc23)n1)C(=O)NCC(F)(F)F [Example 9, (2E)-3-[6-(5-chloro-1H-pyrrolo[2,3-b]pyridin-3-yl)pyrazin-2-yl]-2-methyl-N-(2,2,2-trifluoro-ethyl)prop-2-enamide] and O=C(CCc1cncc(-c2c[nH]c3ncc(Cl)cc23)n1)NCC(F)(F)F [Example 12, 3-[6-(5-chloro-1H-pyrrolo[2,3-b]pyridin-3-yl)pyrazin-2-yl]-N-(2,2,2-trifluoroethyl)propanamide] fall in the same range of IC50: 10 to 100 nM for the first, 10 to 100 nM for the second.

First: O=C(NCC(F)(F)F)c1ccc(-c2cncc(-c3c[nH]c4ncc(Cl)cc34)n2)cc1 [Example 10, 4-[6-(5-Chloro-1H-pyrrolo[2,3-b]pyridin-3-yl)pyrazin-2-yl]-N-(2,2,2-trifluoroethyl)benzamide]
Second: O=C(NCC(F)(F)F)C1=C(c2cncc(-c3c[nH]c4ncc(Cl)cc34)n2)CCC1 [Example 10-1, 2-[6-(5-chloro-1H-pyrrolo[2,3-b]pyridin-3-yl)pyrazin-2-yl]-N-(2,2,2-trifluoroethyl)cyclopent-1-ene-1-carboxamide]
The IC50 of the first is higher: 100 to 1000 nM for the first, 1 to 10 nM for the second. The second is the more potent here.

C[C@@H](Nc1cncc(-c2c[nH]c3ncc(C4CC4)cc23)n1)C(=O)NCC(F)(F)F [Example 13, N^2-[6-(5-cyclopropyl-1H-pyrrolo[2,3-b]pyridin-3-yl)pyrazin-2-yl]-N-(2,2,2-trifluoroethyl)-D-alaninamide] and Cc1cnc2[nH]cc(-c3cncc(N[C@H](C)C(=O)NCC(F)(F)F)n3)c2c1 [Example 15, N2-[6-(5-methyl-1H-pyrrolo[2,3-b]pyridin-3-yl)pyrazin-2-yl]-N-(2,2,2-trifluoroethyl)-D-alaninamide] cannot be ordered by IC50: at most 1 nM for the first, 1 to 10 nM for the second.

C[C@@H](Nc1cncc(-c2c[nH]c3ncc(-c4cnn(C)c4)cc23)n1)C(=O)NCC(F)(F)F [Example 14, N^2-{6-[5-(1-methyl-1H-pyrazol-4-yl)-1H-pyrrolo[2,3-b]pyridin-3-yl]pyrazin-2-yl}-N-(2,2,2-trifluoroethyl)-D-alaninamide] gave an IC50 of at most 1 nM.
